Source: patent publication US20230184743A1, “SCREENING METHODS TO IDENTIFY SMALL MOLECULE COMPOUNDS THAT PROMOTE OR INHIBIT THE GROWTH OF CIRCULATING TUMOR CELLS, AND USES THEREOF” (University of Southern California, priority 2020, published 2023)
“Also recorded” adds a separate entry of the source.

Columns and labels:
[1] = tested on: GFP-Luciferase tagged BRx68 single clones; test: Xenograft assay of single cell clones generated with or without NAC; format: in vivo; conditions: clones generated with 300 μM NAC for 24 days vs control clones; mammary fat pad of female NSG mice
Experimental: Single CTC clones. NAC clones were generated by treating single CTCs with 300 μM NAC media for 24 days before switching to regular CTC media. Control single clone lines were established in the same batch using regular CTC media.
Xenograft assay and Hematoxyline & Eosin staining. Six-week old female NSG mice (Jackson Laboratory) were anesthetized with isoflurane and 20,000 GFP/luc-positive single clone cells in 100 μL of 1:1 PBS and Corning® Matrigel® Matrix (phenol-red free) were injected into the fourth mammary fat pad. To evaluate the growth of primary tumors, mice were intraperitoneally injected with 150 μL of d-Luciferin substrate at 30 mg/mL (Sid Labs), and imaged within 15 minutes. Signals from luciferase-tagged cells were monitored at day 0 after injection and weekly by in vivo imaging using IVIS Lumina II (Perkin Elmer) for 5 weeks. Mice were sacrificed after 8 weeks, and their organs were dissected and imaged. Primary tumors and organs were collected and fixed with 10% formalin overnight and sectioned for 5 μm thickness. H&E staining was performed using Varistain Gemini ES Automated Slide Stainer in USC's Histology Laboratory (HIST). Images were taken with a 20× objective in Keyence (BZ-II Analyser, Keyence).
Validation on spiked-in CTCs. To mimic the CTC isolation procedure, spiked-in experiments were performed with 3 CTC lines (BRx42, BRx50 and BRx68) into healthy donors' blood. […]

[2] = tested on: single CTCs from a patient with breast cancer; test: Culture of freshly isolated single CTCs from patients with breast cancer in NAC containing media; format: cell-based, human; conditions: clones dying after 2 weeks in regular media
Experimental: Patient samples. Ten milliliters of blood was collected from each of a total of 12 patients with breast cancer (stage IV). All experiments were performed following the ethical principles. Informed consents were signed by all patients and/or their legal guardian/s.
Isolation of single CTCs. Single CTCs were detected and retrieved using the negative selection protocol of PIC&RUN assay. Briefly, 7.5 mL of blood was added to each AccuCyte Separation Tube (RareCyte) and tubes were centrifuged twice in a special device to collect buffy coats in 1 mL of CTC media. Buffy coats were stained with a cocktail of immune cell markers (IM) antibodies (CD45, CD14, and CD16) and Cell-Tracker green for 30 min at 37° C. Stained buffy coats were seeded on polyhema coated cyteslides and scanned semi-automatically using RareCyte fluorescence. When a CTC was detected, the Rarecyte ceramic tip needle was operated semi-automatically to pick up the cell of interest in a draw volume of 50 nL to 0.5 μL, and deposit it in a PCR tube contains 50 μL of media. PCR tubes were pulse spun, their contents were moved to a well of a 96-well GravityTRAP ultralow plate (InSphero) and plates were incubated at 37° C., 5% CO2 and 4% 02 for 3 weeks. Media was replaced every 3 to 4 days and cells were checked every week.
NAC rescued the proliferation of freshly isolated CTCs from a patient with breast cancer. […]

[3] = tested on: BRx68-GFP+ cells; test: RNA-seq analysis of pools of growing single cell clones; format: cell-based, human; conditions: day 6; NAC 0.3 mM, P4D8 1 μM
Experimental: RNA-seq analysis. BRx68-GFP+ cells were sorted, with 1 cell per well, using the MoFlo cell sorter (Beckman Coulter). Single cells were cultured in the presence of CTC media containing either 1 μM of P1C2, P4D8, or P1G7, or 0.3 mM of NAC or a combination of 1 μM of P1C2 and 0.3 mM of NAC. Cells cultured in media containing DMSO served as a control. All cells were cultured for either 6 days or 13 days at 37° C., 5% CO2 and 4% O2, and media was changed every 3 days. For both day 6 and day 13 groups, only clones with more than 3 cells at day 6 were harvested and pooled to a maximum of 50 cells. […] Libraries were sequenced on an Illumina NextSeq500 to obtain 75 bp-long single-end reads.
RNA-sequencing reads were trimmed for Nextera and Illumina adapter sequences using Trim Galore under default parameters. Trimmed reads were then mapped to the human genome build GRCh37 from Ensembl (ftp:/][/ftp.ensembl.org/pub/grch37/current/fasta/homo_sapiens/dna/Homo_sapiens.GRCh37.dna_sm.primary_as sembly.fa.gz) using STAR under optimized parameters for single-end sequenced data. Aligned reads were then counted via feature-Counts and piped into DESeq2 for normalization to sequencing depth and downstream analysis. […]

CC(=O)N[C@@H](CS)C(=O)O [NAC, N-acetyl-L-cysteine]
tumorigenicity of single cell clones (tumor growth kinetics and histology) [1]: dose not change the tumorigenicity; also recorded: did not significantly affect | proliferation of freshly isolated patient CTC clone after switch to NAC containing media [2]: rescued a CTC clone; also recorded: recovered and resumed proliferation | lipid metabolism pathway enrichment (IPA of differentially expressed genes) compared with control [3]: enriched
